Source: patent publication EP0839146B1, “PIPERAZINE DERIVATIVES AND THEIR USE AS 5-HT1A ANTAGONISTS” (AMERICAN HOME PRODUCTS CORPORATION, priority 1995, dated 1997)

What was measured:
α1 receptors = assay: α1 binding affinity (procedure of Marrow et al)
Protocol: The compounds were tested for α1 binding affinity (column 3) by the procedure of A.L. Marrow et al, Mol. Pharmacol., 1986, 29, 321.

5-HT1A receptor [1] = biological target: T1, 5-HT1A receptor (Rattus norvegicus, UniProt P19327); assay: 5-HT1A receptor antagonist activity: antagonism of the 8-OH-DPAT syndrome in rats after oral pretreatment; type: in vivo; parameters: from tissue; host or cells: whole animal (rat), in vivo
T1 sequence (P19327 1-422): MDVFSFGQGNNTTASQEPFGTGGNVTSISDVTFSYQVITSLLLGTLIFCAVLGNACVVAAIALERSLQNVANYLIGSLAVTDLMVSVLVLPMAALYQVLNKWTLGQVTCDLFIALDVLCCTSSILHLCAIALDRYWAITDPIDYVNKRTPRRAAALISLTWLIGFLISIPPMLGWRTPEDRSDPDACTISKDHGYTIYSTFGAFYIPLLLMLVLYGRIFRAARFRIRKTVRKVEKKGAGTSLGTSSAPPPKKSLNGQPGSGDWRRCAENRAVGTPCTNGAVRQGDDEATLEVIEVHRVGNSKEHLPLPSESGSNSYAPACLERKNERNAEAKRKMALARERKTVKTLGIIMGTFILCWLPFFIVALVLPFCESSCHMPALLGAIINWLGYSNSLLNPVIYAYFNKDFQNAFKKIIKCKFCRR
Protocol: 5-HT1A receptor antagonist activity (columns 5 and 6) is assessed by the ability of the selective 5-HT1A receptor agonist, 8-OH-DPAT, to induce 'the 8-OH-DPAT syndrome' in rats characterised by extended flat body posture, forepaw treading and hyperlocomotion. The 8-OH-DPAT syndrome is scored as present (definite syndrome response) or absent (equivocal or no syndrome response) during the period 0-5 min following intravenous (i.v.) administration of the test agonist via a lateral tail vein.
A range of doses, on a logarithmic scale and encompassing the expected ED50, were chosen for the test agonist following preliminary evaluation. […]
Test antagonists were administered orally (p.o.) 60 min, before i.v. administration of 8-OH-DPAT. ED50 values for 8-OH-DPAT were determined for the different pretreatment groups using the sequential up/down procedure as described above.
The response to the selective 5-HT1A receptor agonist, 8-OH-DPAT, is represented as an ED50 value for induction of the 8-OH-DPAT syndrome, which is determined using the sequential up/down analysis following intravenous administration. 5-HT1A antagonist activity is determined by the ability of the test compound to antagonise the response to 8-OH-DPAT, i.e. to increase the ED50 for induction of the 8-OH-DPAT syndrome compared with vehicle pretreatment. […]

5-HT1A receptor [2] = biological target: T1, 5-HT1A receptor; assay: 5-HT1A binding affinity in rat hippocampal membrane homogenate (method of Alexander and Wood); parameters: in rat hippocampal membrane homogenate; from tissue; host or cells: rat hippocampus (membrane homogenate)
Protocol: The compounds were tested for 5-HT1A binding affinity (column 2) in rat hippocampal membrane homogenate by the method of B.S. Alexander and M.D. Wood, J. Pharm. Pharmacol., 1988, 40, 888-891.

C[C@H](CN(C(=O)C1CCCCC1)c1ccccn1)N1CCN(c2cccc3c2OCCO3)CC1 [Example A1]
IC50 (α1 receptors): 625 nM
5-HT1A-antagonist Ratio (ED50 antagonist @ 3mg/kg po)/ED50 vehicle (5-HT1A receptor [1]; ED50 of i.v. 8-OH-DPAT after test compound 3 mg/kg p.o. divided by ED50 after vehicle): 20
5-HT1A-antagonist activity MED (5-HT1A receptor [1]; antagonist p.o. 60 min before i.v. 8-OH-DPAT, lowest dose at which ED50 confidence limits of antagonist and vehicle groups do not overlap): 1 mg/kg po
Ratio 5HT1A/α1 (5-HT1A receptor [2]; binding selectivity, ratio of 5-HT1A binding to α1-binding): 145
IC50 (5-HT1A receptor [2]; rat hippocampal membrane homogenate): 4.3 nM
